Measured values reported in patent USRE30731E, “Enkephalin analogues” (priority 1977, dated 1981).

Key:
rats = test: tail flick assay, intraventricular administration; type: in vivo, rat; settings: administered intraventricularly to rats
Source text: Also, we have indications of in vivo analgesic effects of the analogues.

rat brain membranes = test: radio receptor assay (R.R.A.): displacement of tritiated naloxone from rat brain membranes; type: binding; settings: based on concentration displacing 50% of (3H)naloxone (1 nM) from rat brain membranes; 0.1 M NaCl/50 mM Tris pH 7.4; 15 minutes; bacitracin
Method: (III)R.R.A. stands for radio receptor assay; based on the concentration
required to displace 50% of tritiated naloxone from rat brain membranes.
The displacements .[.replacements.]. were carried out against (^3
H)naloxane (lnM) in 0.1 M sodium chloride/50mM Tris buffer at pH 7.4;
incubations were for 15 minutes in the .Iadd.presence
.Iaddend..[.absence.]. of bacitracin. For general reference to the method
see literature as discussed in "Opiate Receptor Mechanisms". S. H. Snyder
and S. Matthysse eds, MIT Press, 1975.

mouse vas deferens = mouse vas deferens (M.V.D.) assay; type: cell-based; settings: Met Enkephalin = 100%
Source text: (II)M.V.D. stands for mouse vas deferens
Kosterhtz, H. W. & Leslie. F. M. Br. J. Pharmac. 53, 371, 381,

5-Amino-6-(4'-hdyroxyphenyl)-hexanoyl-glycyl-L-phenylalanyl-L-methionine a mide [Analogue H211]
analgesia (tail flick assay) (rats): analgesia lasting for several minutes
Activity Relative to Met Enkephalin, R.R.A. (rat brain membranes): 8%
Activity Relative to Met Enkephalin, M.V.D. (mouse vas deferens): 0.9%
